Measured values taken from PubChem BioAssay AID179 (DTP/NCI, 2004).
Values joined by “and” are separate entries in the source; they are usually repeats but may differ in a detail not shown here. Equal entries are not always repeated. Active and inactive are the calls of the source.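 The calls were made as follows: active = compounds giving half or more protection of infected cells from virus-caused growth loss, again on retest; inactive = the rest.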

Test system: CEM cells HIV-1 protection, formazan growth assay
Assay: NCI AIDS Antiviral Assay
Conditions: for IC50: measured here: growth of uninfected CEM cells
Procedure, shortened: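 Soluble formazan readout of cell growth; CEM cells ± HIV-1; 5 drug concs. ≥50% protection → retest; ≥50% again = moderately active; reproducible 100% = confirmed active.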

Compound	outcome	EC50	IC50
CCOC(=O)C1CC=CC(NC(=O)OC(C)(C)C)C1(c1ccccc1)[N+](=O)[O-] (stereo not drawn)	inactive		
COc1cc(OC)c(C2c3cc4c(cc3OC(N3CCCC3)C2C)OCO4)c(OC)c1 (stereo not drawn)		> 200 µM	4.37 µM
CCOC(=O)/C=C(/CN1C(=O)c2ccccc2C1=O)c1ccccc1	inactive		
CCOC(=O)C(C)Sc1nnc(COc2ccccc2OC)n1-c1ccccc1 (stereo not drawn)		> 200 µM	162 µM
Nc1nc2c(ncn2C2COC(CO)O2)c(=O)[nH]1 (stereo not drawn)		30.2 µM	> 200 µM
Cc1cc(NS(=O)(=O)c2ccc(Nc3c4ccccc4nc4c(C(=O)N5CCN(CCO)CC5)cccc34)cc2)no1		> 38 µM	> 38 µM
FC(F)(Sc1nc2ccccc2[nH]1)c1nc2ccccc2o1		> 200 µM	> 200 µM
N#CCCC[Si]12OCCN(CCO1)CCO2	inactive		
COc1cc(OC)c(OC)cc1/C=C/c1cc[n+](C)c2ccccc12		> 200 µM	7.59 µM
C/C(=N\NC(=S)N1CCN(c2ccccn2)CC1)c1cccc(C)n1		> 42.7 µM	0.0155 µM
COc1cc([N+](=O)[O-])c(OC)c2c(Nc3ccc(S(=O)(=O)O)c4cc(S(=O)(=O)O)cc(S(=O)(=O)O)c34)cc(C)nc12		> 200 µM	> 200 µM
CN1Cc2ccccc2C2(COc3ccccc3C2=O)C1 (stereo not drawn)	inactive		
COc1ccc(/C=C2\CCC(C)C3C2=NN(c2ccccc2)C3c2ccc(OC)c(OC)c2)cc1OC (stereo not drawn)		> 200 µM	5.01 µM
Cc1c(C2=NN=C(N=Nc3c(O)cccc3O)/C2=C/c2ccccc2)c(=O)n(-c2ccccc2)n1C	inactive		
COC1Cc2ccccc2C1O (stereo not drawn)	inactive		
Nc1nc(Cl)cc(NCC2(CO)CCC2)n1		> 200 µM	191 µM
O=C1c2ccccc2C(=O)C2(C(c3ccccc3)c3ccccc3)N=NCC12 (stereo not drawn)		> 200 µM	105 µM
CC1=Nn2c(nnc2-c2ccccc2Cl)NC(C)(C)C1		> 447 µM	282 µM
Oc1cc(-c2ccccc2)cn2c1nc1ccccc12		> 200 µM	1.07 µM
CCN(CC(O)COc1ccc2c(c1)[n+]([O-])nc(N)[n+]2[O-])C(C)=O (stereo not drawn)		> 200 µM	23.4 µM
COc1ccc(NC(=O)CC/C(CC(=O)C(C)(C)C)=N\NC(=O)C(=O)NN)cc1	inactive		
CCOC(=O)c1cc2sc(NC(=O)c3ccccc3)nc2o1	inactive		
COc1ccc2nc3ccc(OC)cc3c(SCCO)c2c1		> 200 µM	8.51 µM

Compound	outcome	EC50	IC50
O=C(O)/C=C/n1c2ccccc2c(=O)c2ccccc21		> 70.8 µM	> 70.8 µM
N#Cc1ccsc1Nc1ccccc1[N+](=O)[O-]		95.5 µM	> 200 µM
CCCC(C(=O)OCC)N1C(=O)c2ccccc2S1(=O)=O (stereo not drawn)		> 200 µM	148 µM
COc1cc2c(OC)cc1CSCc1sc(C)c(c1Br)CSC2		> 11.5 µM	> 11.5 µM
C[N+]12C=CC=C1C(N1CCCC1)c1scc(-c3ccc(F)cc3)c12 (stereo not drawn)		> 200 µM	24.5 µM
CN1CCOC1c1ccccc1O (stereo not drawn)		> 200 µM	> 200 µM
Oc1ccccc1C=NCCN=Cc1ccccc1O.[CH3][Sn]([CH3])([Cl])[Cl]	inactive		
CCSC1=N/C(=C\c2ccco2)C(NN)=N1		> 50.1 µM	> 50.1 µM
CSc1c(C#N)c(=O)[nH]c2n[nH]c(C)c12		> 200 µM	> 200 µM
O=C(N/N=C\C(F)(F)F)c1ccncc1		> 200 µM	3.55 µM
Cc1sc2ccccc2c2nc3ccccc3c1-2	inactive		
CC(C)(CN1CCCCC1)C(=O)CC(SCCN)c1ccc(Cl)cc1 (stereo not drawn)		> 234 µM	12.6 µM
Cc1nc(Nc2ccccc2)sc1C(=O)NNc1ccc([N+](=O)[O-])cc1[N+](=O)[O-]		> 63.1 µM	38 µM
C=CCn1cnc2c(=O)[nH]c(Nc3ccccc3)nc21		> 151 µM	> 151 µM
c1ccc(COC[C@H]2O[C@@H](c3ccccc3)C[C@@H](OCc3ccccc3)C2OCc2ccccc2)cc1 (stereo partly drawn)		> 200 µM	> 200 µM
O=C1C(OC(=O)c2ccccc2)=C(c2ccc(O)cc2)C(=O)C(OC(=O)c2ccccc2)=C1c1ccc(O)cc1		> 39.8 µM	> 39.8 µM
C/C(CC(=O)CCCC(=O)Nc1ccc(Cl)cc1Cl)=N/NC(=O)CC#N		> 18.2 µM	> 18.2 µM
O=S(=O)(F)c1cccc(C[P+](c2ccccc2)(c2ccccc2)c2ccccc2)c1		> 200 µM	51.3 µM
CCOC(=O)c1cc(C2=CCNC2=O)c(-c2cc(C)no2)[nH]1		> 200 µM	33.1 µM
COc1ccc2oc3c(OC)c(OC)c(OC)cc3c(=O)c2c1		> 8.71 µM	
Cc1ccc(C)c(NC(=O)C(=O)Nn2c(=S)[nH]c3ccccc3c2=O)c1		> 501 µM	191 µM
COc1ccc(/C(C#N)=C/c2ccccc2)cc1		> 200 µM	10.7 µM
CC12CCC(C(Br)C1=O)C2(C)CS(=O)(=O)O (stereo not drawn)		> 200 µM	> 200 µM

Compound	outcome	EC50	IC50
CC1=CC2OC3CC4OC(=O)/C=C/C=C/C(C(C)O)OCC(O)C(C)CC(=O)OCC2(CC1O)C4(C)C31CO1 (stereo not drawn)		> 0.2 µM	0.0631 µM
CCOP(=O)(O)CN1CCNCCN(CP(=O)(O)OCC)CCNCC1		> 100 µM	> 100 µM
NC(=O)Nc1ccc(S(=O)(=O)c2ccc(N)cc2)cc1		> 200 µM	> 200 µM
O=NN(CCCl)C(=O)NCCCl		> 1150 µM	> 1150 µM
CNC1C(OC2C(OC3C(O)C(O)C(N=C(N)N)C(O)C3N=C(N)N)OC(C)C2(O)/C=N/NC(N)=S)OC(CO)C(O)C1O (stereo not drawn)	inactive		
CC1=CCC(C)=Nc2nc3ccccc3n21		> 200 µM	> 200 µM
N#Cc1c(Nc2nc3ccccc3s2)c2ccccc2n2c1nc1ccccc12		> 200 µM	> 200 µM
CCC1(O)C(=O)OCc2c1cc1n(c2=O)Cc2cc3ccc(CO)cc3nc2-1 (stereo not drawn)		> 10 µM	1.51 µM
CNc1ccc(Cl)cc1S(=O)(=O)c1ccccc1		6.03 µM	> 200 µM
C=C1C(=O)OC2CC(C)C3C(OC(C)=O)CC(OC(C)=O)C3(C)CC12 (stereo not drawn)		> 97.7 µM	6.76 µM
CN1CCN(c2cc3nsnc3c3nsnc23)CC1		> 200 µM	> 200 µM
CCN(CC)CC(=O)Nc1ccc2c(c1)C(=O)c1ccc(NC(=O)CN(CC)CC)cc1C2=O		> 100 µM	2.09 µM
O=C1N=C2SCCCN2C1(c1ccccc1)c1ccccc1		> 200 µM	> 200 µM
CN1C(=O)n2c(nc3ccccc32)C(N=[N+]=[N-])(N=[N+]=[N-])C1=O (stereo not drawn)		70.8 µM	> 100 µM
Cc1ccc(C)c(N2C(=O)C(=O)C(c3nc4ccccc4o3)/C(=N/N)C2=O)c1 (stereo not drawn)	inactive		
O=c1c(I)c[nH]cc1I		> 200 µM	> 200 µM
O=C1C(=O)c2ccccc2C(O)=C1C(CCc1ccccc1)C1=C(O)c2ccccc2C(=O)C1=O		> 200 µM	55 µM
O=C1CCCn2c(nc3ccccc32)N1		> 200 µM	> 200 µM
COC1=C(C(=O)O)P(C)(=O)CC1 (stereo not drawn)		> 214 µM	> 214 µM
O=C(O)CCC(=O)OCCNCCOC(=O)CCC(=O)O	inactive		
NS(=O)(=O)c1ccc(NC(=O)c2ccc3nc4ccccc4c(Nc4ccc(S(N)(=O)=O)cc4)c3c2)cc1		67.6 µM	> 200 µM
O=C(NO)c1ccc([N+](=O)[O-])cc1		> 200 µM	29.5 µM
CCOC(=O)N(c1ccccc1)N(CC)C(=O)/C(C)=N/Nc1ccc([N+](=O)[O-])cc1	inactive		

Compound	outcome	EC50	IC50
COc1cc(C(C#N)NNC(=O)c2ccccc2O)ccc1O (stereo not drawn)		> 5.75 µM	0.427 µM
Cc1cc(NCCCCCCNc2cc(C)nc3ccc(N)cc23)c2cc(N)ccc2n1			10.7 µM and 72.4 µM
N/N=C(\CC1OC(=O)c2ccccc21)c1ccco1 (stereo not drawn)		> 977 µM	617 µM
CSCCCNC(=O)c1csc(-c2csc(CCNC(=O)CNC(=O)OC(C)(C)C)n2)n1		> 501 µM	234 µM
CCOC(=O)C1=C(O)c2ccccc2S(=O)(=O)N1C (tested in a mixture with another compound)		> 123 µM	110 µM
Cc1occc1C(=S)Nc1ccc(Cl)c(COC(C)(C)C)c1		5.13 µM	29.5 µM
CC(C)=CCC[C@@H](C)c1c2[nH]c3ccccc3sc-2c(C)c(=O)c1=O		> 200 µM	4.27 µM
CCN(CC)c1ccc2c(c1)Oc1ccc(N(C(C)=O)c3ccccc3)cc1C21OC(=O)c2ccccc21 (stereo not drawn)		> 200 µM	6.03 µM
CC1=CCCC(C)C1(C)CC/C(C)=C/CC/C(C)=C/CS(=O)(=O)CCN=C(N)N (stereo not drawn)		> 61.7 µM	10.7 µM
NC(=O)CNC(=O)c1ccccc1SC(=O)NCCBr		2 µM	10 µM
O=C1C(=O)N(C2C3CC4CC(C3)CC2C4)C(=O)C(=O)C1c1nc2ccccc2o1 (stereo not drawn)		> 91.2 µM	52.5 µM
CC1CN=C(NS(=O)(=O)c2cc(C(=O)Nc3ccc(F)cc3)c(Cl)cc2S)NN1 (stereo not drawn)		> 200 µM	24 µM
C/C=C/CC(S(=O)(=O)c1ccccc1)S(=O)(=O)c1ccccc1		> 100 µM	> 100 µM
CC(=O)OC1CC2C(C)(C)C(=O)C=C[C@]2(C)C2CCC3(C)C(=CCC3[C@H](CO)C[C@H](O)C(=O)C(C)(C)O)[C@]12C (stereo partly drawn)		> 47.9 µM	18.6 µM
O=C1C(=C(C(F)(F)Cl)C(F)(F)Cl)C2CCC1C2 (stereo not drawn)	inactive		
COc1ccc(-c2coc3cc(O)cc(O)c3c2=O)cc1		> 200 µM	12.6 µM
CCc1ccc2c(c1)CC1(C2)Cc2cc3c(cc2C1)C(=O)CC3 (stereo not drawn)		> 200 µM	12.6 µM
CCN(CC)CC(=O)NC1c2ccc(Cl)cc2Oc2c(C)cccc21 (stereo not drawn)		> 72.4 µM	58.9 µM
COC1CC(C)(NC(=O)C(F)(F)F)C2OC(c3ccccc3)OCC2O1 (stereo not drawn)		> 200 µM	> 200 µM
CCCN(CC)C(=O)COc1cc2c(O)c3c(O)c(C)c4c(c13)C(=O)C(C)(O/C=C/C(OC)C(C)C(OC(C)=O)C(C)C(O)C(C)C(O)C(C)/C=C/C=C(\C)C(=O)N2)O4 (stereo not drawn)		> 200 µM	12.9 µM
N/N=C1/C(=N/O)CCc2nonc21		> 200 µM	> 200 µM
